According to ChEMBL document CHEMBL3785052, “Novel spiropyrazolone antitumor scaffold with potent activity: Design, synthesis and structure-activity relationship” (Eur J Med Chem, 2016):

Legend:
A549 = assay: Cytotoxicity against human A549 cells assessed as growth inhibition after 72 hrs by MTT assay; type: functional, cell-based; conditions: A549, 72 h
[1] = Cytotoxicity against human HCT116 cells assessed as growth inhibition after 72 hrs by MTT assay; type: functional, cell-based; conditions: HCT-116, 72 h
MDA-MB-231 = assay: Cytotoxicity against human MDA-MB-231 cells assessed as growth inhibition after 72 hrs by MTT assay; type: functional, cell-based; conditions: MDA-MB-231, 72 h
HCT-116 [2] = assay: Induction of apoptosis in human HCT116 cells assessed as apoptotic cells at 5 uM after 24 hrs by annexin V-FITC/propidium iodide staining based flow cytometric analysis; type: functional
HCT-116 [3] = assay: Induction of apoptosis in human HCT116 cells assessed as apoptotic cells at 5 uM after 48 hrs by annexin V-FITC/propidium iodide staining based flow cytometric analysis; type: functional

With CC1=NN(c2ccccc2)C(=O)[C@]12C(=O)C=CC[C@H]2c1ccccc1[N+](=O)[O-] the IC50 (A549) was 12.9 µM, the IC50 [1] was 11.2 µM and the IC50 (MDA-MB-231) was 32.4 µM.

CC1=NN(c2ccccc2)C(=O)[C@@]12C(=O)C=CC[C@H]2c1cccc(C)c1 showed an IC50 (A549) of 3.5 µM, an IC50 [1] of 5.82 µM and an IC50 (MDA-MB-231) of 6.61 µM.

Molecule CC1=NN(c2ccccc2)C(=O)[C@]12C(=O)C=CC[C@H]2c1ccccc1 has an IC50 (A549) of 8.29 µM, an IC50 [1] of 5.3 µM and an IC50 (MDA-MB-231) of 5.8 µM.

With CC1=NN(c2ccccc2)C(=O)[C@@]12C(=O)C=CC[C@@H]2c1cccc(C)c1 (racemic) the IC50 (A549) was 4.51 µM, the IC50 [1] was 3.8 µM and the IC50 (MDA-MB-231) was 6.8 µM.

Molecule CC1=NN(c2ccccc2)C(=O)[C@@]12C(=O)C=CC[C@@H]2c1ccccc1[N+](=O)[O-] (racemic) has an IC50 (A549) of 66.4 µM, an IC50 [1] of 66.8 µM and an IC50 (MDA-MB-231) of 68.3 µM.

For CC1=NN(c2ccccc2)C(=O)[C@]12C(=O)C=CC[C@@H]2c1cccc(C)c1 (racemic), the IC50 (A549) was 4.77 µM, the IC50 [1] was 5.49 µM and the IC50 (MDA-MB-231) was 8 µM.

In the case of O=C(CCCCCCC(=O)Nc1ccccc1)NO [VORINOSTAT], the Activity (HCT-116 [2]) is reported as 42.2% and the Activity (HCT-116 [3]) is reported as 62.4%.

Molecule CC1=NN(c2ccccc2)C(=O)[C@@]12C(=O)C=CC[C@H]2c1ccccc1 has an IC50 (A549) of 3.77 µM, an IC50 [1] of 4.4 µM and an IC50 (MDA-MB-231) of 5.5 µM.

CC1=NN(c2ccc(C)cc2)C(=O)[C@]12C(=O)C=CC[C@@H]2c1ccc(C)cc1 (racemic) gave an IC50 (A549) of 54.2 µM, an IC50 [1] of 14.6 µM and an IC50 (MDA-MB-231) of 57.2 µM.

Molecule CC1=NN(c2ccccc2)C(=O)[C@@]12C(=O)C=CC[C@@H]2c1ccc(C)cc1 (racemic) has an IC50 (A549) of 6.57 µM, an IC50 [1] of 5.22 µM and an IC50 (MDA-MB-231) of 7.42 µM.

Work on CC1=NN(c2ccccc2)C(=O)[C@@]12C(=O)C=CC[C@@H]2c1ccccc1 (racemic) yielded an IC50 (A549) of 7.77 µM, an IC50 [1] of 6.07 µM and an IC50 (MDA-MB-231) of 9.31 µM.

Work on CC1=NN(c2ccccc2)C(=O)[C@@]12C(=O)C=CC[C@H]2c1ccc(C)cc1 yielded an IC50 (A549) of 6.09 µM, an IC50 [1] of 5.21 µM and an IC50 (MDA-MB-231) of 8.3 µM.

With CC1=NN(c2ccccc2)C(=O)[C@]12C(=O)C=CC[C@@H]2c1ccc(C)cc1 (racemic) the IC50 (A549) was 8.6 µM, the IC50 [1] was 5.8 µM and the IC50 (MDA-MB-231) was 6.24 µM.

For CC1=NN(c2ccc(C)cc2)C(=O)[C@]12C(=O)C=CC[C@H]2c1ccc(C)cc1, the IC50 (A549) was 7.52 µM, the IC50 [1] was 3.53 µM and the IC50 (MDA-MB-231) was 8.28 µM.

CC1=NN(c2ccccc2)C(=O)[C@]12C(=O)C=CC[C@H]2c1cccc(C)c1 gave an IC50 (A549) of 13.1 µM, an IC50 [1] of 9.58 µM and an IC50 (MDA-MB-231) of 10.3 µM.

COc1cccc2c1C(=O)c1c(O)c3c(c(O)c1C2=O)C[C@@](O)(C(=O)CO)C[C@@H]3O[C@H]1C[C@H](N)[C@H](O)[C@H](C)O1 [DOXORUBICIN] showed an IC50 (MDA-MB-231) of 0.45 µM.

CC1=NN(c2ccccc2)C(=O)[C@]12C(=O)C=CC[C@@H]2c1ccccc1 (racemic) gave an IC50 (A549) of 9.18 µM, an IC50 [1] of 6.04 µM and an IC50 (MDA-MB-231) of 9.08 µM.

With CC1=NN(c2ccc(C)cc2)C(=O)[C@@]12C(=O)C=CC[C@H]2c1ccc(C)cc1 the IC50 (A549) was 6.79 µM, the IC50 [1] was 3.62 µM and the IC50 (MDA-MB-231) was 9.2 µM.

COc1ccccc1[C@@H]1CC=CC(=O)[C@]12C(=O)N(c1ccccc1)N=C2C showed an IC50 (A549) of 3.96 µM, an IC50 [1] of 2.85 µM and an IC50 (MDA-MB-231) of 5.14 µM. The Activity (HCT-116 [2]) was 68.44% and the Activity (HCT-116 [3]) was 72.13%.

Work on CC1=NN(c2ccccc2)C(=O)[C@]12C(=O)C=CC[C@H]2c1ccc(C)cc1 yielded an IC50 (A549) of 2.89 µM, an IC50 [1] of 4.22 µM and an IC50 (MDA-MB-231) of 5.72 µM.

Work on CC1=NN(c2ccc(C)cc2)C(=O)[C@@]12C(=O)C=CC[C@@H]2c1ccc(C)cc1 (racemic) yielded an IC50 (A549) of 4.32 µM, an IC50 [1] of 4.15 µM and an IC50 (MDA-MB-231) of 8.12 µM.

COc1ccccc1[C@H]1CC=CC(=O)[C@@]12C(=O)N(c1ccccc1)N=C2C (racemic) showed an IC50 (A549) of 18.7 µM, an IC50 [1] of 13.9 µM and an IC50 (MDA-MB-231) of 15.7 µM.
